Experimental data reported in PMC3498381, “Isolated Toll-like Receptor Transmembrane Domains Are Capable of Oligomerization” (PLoS ONE, 2012).
No end group written: not given here.

Key:
[1] = tested on: homotypic interaction of the same TMD peptide; assay: Fluorescence self-quenching assay in C14-betaine micelles; format: binding, human; conditions: from molar fraction Kd compared with known ranges of TMD interactions
From the text: An apparent dissociation constant (Kd) can be determined from self-quenching interactions by varying the amount of detergent present for a fixed peptide concentration. At low detergent:peptide ratios, the TMD peptides are driven to interact; however, gradually increasing the amount of detergent present at a fixed peptide concentration will cause the TMD interactions to dissociate. Then, at some critical detergent:peptide ratio, the interaction is completely dissociated and the fluorescence plateaus. […] Fitting the data results in apparent dissociation constants, Kd, in terms of a dimensionless detergent:peptide ratio (molar fraction) as this ratio, instead of the bulk concentration, is more relevant to TMD peptide association. For TLR1 the Kd was determined to be 645.63±49.08, for TLR6 the Kd was determined to be 883.57±86.92 and for TLR2 the Kd was determined to be 4475.5±637.9. […]
Figure 5 TLR1, TLR2, and TLR6 Homotypic Interactions by Fluorescence Self-Quenching. […] Homotypic interaction affinity was studied by changes of fluorescence intensity at different molar ratios of detergent to peptide. […] Increasing detergent competes off the TMD-TMD interactions and leads to an increase in fluorescence signal. […] Kd were determined using the Hill Equation.
Fluorescence self-quenching was used to directly probe the homotypic interactions of the synthetic peptides. […] Peptide concentrations of these samples were determined by UV-VIS and adjusted with the corresponding C14-Betaine only buffers such that all peptide concentrations were 1 µM. […] Samples were allowed to equilibrate in the 96-well plate at room temperature for 2 h before measurement using a Beckman-Coulter DTX 880 Multimode Detector plate reader. […] Each data point is blank corrected for the corresponding C14-Betaine only signal and are the average of 3 different readings. To scale the data from 0 to 1, the initial data point was averaged and set to be zero by subtracting from all further readings, and the data points that are in the plateau region were averaged and then all values were divided by this average to get a maximum of 1. […]

[2] = tested on: homotypic TMD-TMD interaction (ToxR / ctx promoter / β-galactosidase reporter in FHK12 E. coli); assay: Homotypic ToxR reporter assay (β-galactosidase); format: cell-based; conditions: β-galactosidase Miller units normalized to GpA signal and expression levels; FHK12 E. coli; 3 replicates with >6 measurements each, N in table
Method: . Various plasmid constructs for this assay make it possible to monitor both homotypic and heterotypic interactions that are driven by TMD-TMD association (Fig. S1).
We first investigated homotypic interactions because the majority of the TLR family members function as homodimers. […] This ΔTM construct consists of the same maltose binding protein and ToxR domain, but lacks a TMD for proper membrane insertion (Fig. S2). Statistical analysis using the Tukey-Kramer test was performed to analyze any significant differences between all possible pairs of average interaction potentials (Table S2). […] Among the TLRs, no discernable differences in grouping based on statistical analysis at p = 0.05 were indicated as all receptors belonged to multiple groups, except for TLR1, which with the lowest interaction potential among the family of receptors only existed in one group (Table S1).
Figure 2 Toll-like Receptor Transmembrane Domain Homotypic Interactions. (A) The ToxR assay was used to study homotypic interactions of the TLR TMDs. A chimeric protein expressing the TMD of interest was monitored through β-galactosidase activity. In all cases, we saw that the TLRs have interaction potential solely from TMD-TMD interactions. Each TLR TMD interaction measurement analysis was performed on 3 technical replicates with >6 measurements for each replicate. Error bars depict the standard error of the mean (n – Table S1). Western blots staining for MBP were performed to monitor expression levels of the constructs – (B) chimeric maltose binding protein expression, (C) endogenous maltose binding protein expression. All samples were normalized to the GpA signal and expression levels.
Briefly, the ToxR plasmids containing the TMD of interest (200 ng) were transformed into chemically competent FHK12 E. coli (200 µL) by incubating on ice for 30 min, heat shock at 42°C for 90 s, incubation on ice for 2 min, and addition of SOC media (800 µL) followed by incubation with shaking for 1 h at 37°C. This transformation mixture (50 µL) was then spread on LB agar plates containing cholaramphenicol (30 µg/mL) and ampicillin (100 µg/mL) and grown overnight at 37°C. Single colonies were selected from the plates in triplicate and added to 5 mL of LB media containing cholaramphenicol (30 µg/mL), ampicillin (100 µg/mL), and arabinose (0.0025%). These cultures were incubated overnight (16–20 h) with shaking at 37°C. The β-galactosidase activity was monitored using a Beckman Coulter DTX 880 plate-reader. First 5 µL of each culture was plated >6 times in a clear 96-well flat bottom culture plate (Sarstedt) containing 100 µL of Z-buffer/chloroform (1% β-mercaptoethanol, 10% chloroform, 89% Z buffer: […], 10 mM potassium chloride, 1 mM magnesium sulfate, pH 7.0). The cell densities of each well were recorded by measuring the OD595. Bacteria were lysed by the addition of 50 µL Z-buffer/SDS (1.6% sodium dodecyl sulfate w/v in Z-buffer) and shaking at 28°C for 10 min. Enzymatic activity was measured by adding 50 µL of Z-buffer/ortho-Nitrophenyl-β-[…] (ONPG) (0.4% ONPG w/v in Z-buffer) and monitoring the reaction at 405 nm for a period of 20 min at 30 s intervals. Miller units were calculated using the equation: [drawing 1]
Western blotting was performed with antiserum recognizing the maltose-binding protein moiety of the constructs (Abcam). Data were normalized to GpA Miller Units and protein expression levels using ImageJ (NIH) as reported previously.

Row | Substance | Classification of homotypic interaction strength [1] | Mean homotypic TMD interaction (ToxR) [2]
1 | TLR1*: TLR1 TMD chimera with nonfunctional ToxR* domain (negative phenotype) (GNRASITLLIVTIVATMLVLAVTVTSLCSYLGSLIN; also: fused to non-functional ToxR* (S87H) and maltose binding protein, ends not given here) | weak | 0.4775
2 | TLR2*: TLR2 TMD chimera with nonfunctional ToxR* domain (negative phenotype) (GNRASALVSGMCCALFLLILLTGVLCGSLIN; cysteine pairing not given here; also: fused to non-functional ToxR* (S87H) and maltose binding protein, ends not given here) | moderately strong | 0.7829
3 | TLR6*: TLR6 TMD chimera with nonfunctional ToxR* domain (negative phenotype) (GNRASITLLIVTIGATMLVLAVTVTSLCIYLGSLIN; also: fused to non-functional ToxR* (S87H) and maltose binding protein, ends not given here) | weak | 0.5764
